From the supplement of paper PMC10307832

Experiments:
Experiment in all cases: relative viability (nuclei count vs DMSO), 5 days (fraction); higher = more cells survive
Gemcitabine + Olaparib = compound: Nc1ccn([C@@H]2O[C@H](CO)[C@@H](O)C2(F)F)c(=O)n1 [Gemcitabine] + O=C(c1cc(Cc2n[nH]c(=O)c3ccccc23)ccc1F)N1CCN(C(=O)C2CC2)CC1 [Olaparib] (partner 8 µM)
Procedure, shortened: (§1)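 Lung cancer cell lines in 1536-well plates got either a single drug or a fixed anchor-drug dose together with five library-drug doses (not always all listed) in √10 steps, by pin tool, on the day after seeding. Nuclei were counted after 5 days, and relative viability is the treated-to-vehicle ratio of nuclei counts. Values are medians of duplicate plates.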

Gemcitabine + Decitabine = compound: Nc1ccn([C@@H]2O[C@H](CO)[C@@H](O)C2(F)F)c(=O)n1 [Gemcitabine] + Nc1ncn([C@H]2C[C@H](O)[C@@H](CO)O2)c(=O)n1 [Decitabine] (partner 2 µM)
Procedure, shortened: as §1

Gemcitabine + AZD7762 = compound: Nc1ccn([C@@H]2O[C@H](CO)[C@@H](O)C2(F)F)c(=O)n1 [Gemcitabine] + NC(=O)Nc1cc(-c2cccc(F)c2)sc1C(=O)N[C@H]1CCCNC1 [AZD7762] (partner 0.2 µM)
Procedure, shortened: as §1

Gemcitabine + Lapatinib = compound: Nc1ccn([C@@H]2O[C@H](CO)[C@@H](O)C2(F)F)c(=O)n1 [Gemcitabine] + CS(=O)(=O)CCNCc1ccc(-c2ccc3ncnc(Nc4ccc(OCc5cccc(F)c5)c(Cl)c4)c3c2)o1 [Lapatinib] (partner 2 µM)
Procedure, shortened: as §1

Cell Line	relative viability (Gemcitabine + Olaparib; first compound 0.001 µM)	relative viability (Gemcitabine + Olaparib; first compound 0.003162 µM)	relative viability (Gemcitabine + Olaparib; first compound 0.01 µM)	relative viability (Gemcitabine + Olaparib; first compound 0.03162 µM)	relative viability (Gemcitabine + Olaparib; first compound 0.1 µM)	relative viability (Gemcitabine + Decitabine; first compound 0.001 µM)	relative viability (Gemcitabine + Decitabine; first compound 0.003162 µM)	relative viability (Gemcitabine + Decitabine; first compound 0.01 µM)	relative viability (Gemcitabine + Decitabine; first compound 0.03162 µM)	relative viability (Gemcitabine + Decitabine; first compound 0.1 µM)	relative viability (Gemcitabine + AZD7762; first compound 0.001 µM)	relative viability (Gemcitabine + AZD7762; first compound 0.003162 µM)	relative viability (Gemcitabine + AZD7762; first compound 0.01 µM)	relative viability (Gemcitabine + AZD7762; first compound 0.03162 µM)	relative viability (Gemcitabine + AZD7762; first compound 0.1 µM)	relative viability (Gemcitabine + Lapatinib; first compound 0.001 µM)	relative viability (Gemcitabine + Lapatinib; first compound 0.003162 µM)	relative viability (Gemcitabine + Lapatinib; first compound 0.01 µM)	relative viability (Gemcitabine + Lapatinib; first compound 0.03162 µM)	relative viability (Gemcitabine + Lapatinib; first compound 0.1 µM)
LC-2-ad	0.805	0.791	0.65	0.482	0.224	0.797	0.863	0.729	0.658	0.469	0.86	0.852	0.25	0.185	0.18	0.978	0.917	0.82	0.188	0.111
LCLC-97TM1	0.331	0.178	0.0884	0.0632	0.0703	0.235	0.206	0.143	0.104	0.0854	0.105	0.0523	0.0434	0.0523	0.0703	0.829	0.683	0.178	0.0781	0.0994
LK-2	0.878	0.722	0.386	0.153	0.148	0.242	0.23	0.204	0.109	0.128	0.455	0.251	0.0955	0.105	0.0964	0.977	0.692	0.817	0.329	0.249
LOU-NH91	0.92	0.781	0.501	0.223	0.264	0.801	0.732	0.756	0.562	0.41	0.762	0.603	0.395	0.288	0.292	0.733	0.72	0.479	0.267	0.276
LU99A	0.255	0.272	0.286	0.226	0.221	0.789	1.03	0.816	0.985	0.836	0.437	0.41	0.332	0.367	0.299	1.15	1.16	0.932	0.974	1
LXF-289	1.07	0.935	0.303	0.0848	0.0776	0.396	0.372	0.321	0.222	0.151	1.1	0.767	0.0873	0.0797	0.088	0.922	0.921	0.783	0.282	0.141
NCI-H23	0.293	0.132	0.0825	0.109	0.0995	0.284	0.237	0.155	0.157	0.136	0.154	0.134	0.0996	0.112	0.118	0.794	0.601	0.14	0.159	0.109
NCI-H322M	0.564	0.445	0.356	0.369	0.411	0.607	0.445	0.41	0.457	0.388	0.458	0.382	0.356	0.423	0.419	0.61	0.362	0.239	0.227	0.217
NCI-H358	0.689	0.321	0.146	0.101	0.0993	0.188	0.171	0.151	0.102	0.105	0.201	0.245	0.16	0.23	0.126	0.436	0.398	0.203	0.212	0.156
NCI-H460	0.529	0.426	0.333	0.0343	0.022	0.475	0.451	0.417	0.0447	0.0204	0.831	0.48	0.0469	0.026	0.0247	1.05	1.11	0.278	0.0125	0.009
NCI-H596	0.733	0.714	0.384	0.336	0.311	1.15	0.973	0.763	0.449	0.466	1.24	0.717	0.275	0.319	0.235	1.01	1.07	0.739	0.424	0.373
NCI-H647	0.574	0.103	0.0533	0.0536	0.0389	0.308	0.257	0.151	0.104	0.0673	0.098	0.0427	0.0235	0.0216	0.0238	0.742	0.28	0.0986	0.0734	0.0451
NCI-H650	0.364	0.241	0.113	0.115	0.102	0.243	0.237	0.164	0.175	0.153	0.359	0.172	0.204	0.186	0.161	0.606	0.269	0.299	0.149	0.161
NCI-H727	0.816	0.592	0.35	0.464	0.426	0.846	0.477	0.569	0.451	0.47	0.545	0.45	0.389	0.311	0.403	0.843	0.561	0.262	0.239	0.281
NCI-H838	0.787	0.842	0.534	0.282	0.12	0.442	0.485	0.365	0.281	0.187	0.93	0.886	0.648	0.565	0.616	1.02	1.22	0.923	0.282	0.103
NCI-H1355	0.667	0.441	0.141	0.157	0.151	0.338	0.294	0.25	0.198	0.191	0.434	0.196	0.112	0.163	0.132	0.884	0.825	0.304	0.153	0.153

Cell Line	relative viability (Gemcitabine + Olaparib; first compound 0.001 µM)	relative viability (Gemcitabine + Olaparib; first compound 0.003162 µM)	relative viability (Gemcitabine + Olaparib; first compound 0.01 µM)	relative viability (Gemcitabine + Olaparib; first compound 0.03162 µM)	relative viability (Gemcitabine + Olaparib; first compound 0.1 µM)	relative viability (Gemcitabine + Decitabine; first compound 0.001 µM)	relative viability (Gemcitabine + Decitabine; first compound 0.003162 µM)	relative viability (Gemcitabine + Decitabine; first compound 0.01 µM)	relative viability (Gemcitabine + Decitabine; first compound 0.03162 µM)	relative viability (Gemcitabine + Decitabine; first compound 0.1 µM)	relative viability (Gemcitabine + AZD7762; first compound 0.001 µM)	relative viability (Gemcitabine + AZD7762; first compound 0.003162 µM)	relative viability (Gemcitabine + AZD7762; first compound 0.01 µM)	relative viability (Gemcitabine + AZD7762; first compound 0.03162 µM)	relative viability (Gemcitabine + AZD7762; first compound 0.1 µM)	relative viability (Gemcitabine + Lapatinib; first compound 0.001 µM)	relative viability (Gemcitabine + Lapatinib; first compound 0.003162 µM)	relative viability (Gemcitabine + Lapatinib; first compound 0.01 µM)	relative viability (Gemcitabine + Lapatinib; first compound 0.03162 µM)	relative viability (Gemcitabine + Lapatinib; first compound 0.1 µM)
NCI-H1395	0.438	0.452	0.423	0.351	0.34	0.736	0.592	0.47	0.422	0.365	0.408	0.37	0.352	0.307	0.336	1.02	0.725	0.448	0.32	0.33
NCI-H1437	0.622	0.781	0.488	0.325	0.225	0.572	0.553	0.515	0.364	0.269	1.16	0.951	0.171	0.159	0.124	0.828	0.737	0.402	0.157	0.0977
NCI-H1651	0.182	0.193	0.187	0.138	0.075	0.639	0.406	0.596	0.509	0.172	0.519	0.435	0.39	0.0714	0.0892	0.863	1	0.678	0.165	0.0838
NCI-H1666	0.777	0.707	0.748	0.76	0.597	0.686	0.55	0.712	0.538	0.447	0.866	0.699	0.582	0.332	0.368	0.617	0.708	0.512	0.265	0.239
NCI-H1734	0.535	0.348	0.183	0.111	0.102	0.536	0.343	0.192	0.134	0.102	0.153	0.118	0.0866	0.113	0.0969	0.985	0.97	0.421	0.165	0.0939
NCI-H1755	0.872	0.887	0.787	0.425	0.278	0.708	0.667	0.65	0.568	0.469	0.462	0.396	0.236	0.26	0.245	0.962	1.04	0.959	0.35	0.265
NCI-H1792	0.578	0.0978	0.0544	0.112	0.0454	0.406	0.291	0.0943	0.0857	0.0713	0.166	0.0355	0.0254	0.0229	0.033	0.948	0.806	0.239	0.107	0.0773
NCI-H1793	0.807	0.93	0.159	0.137	0.105	0.512	0.433	0.271	0.156	0.162	0.778	0.211	0.0841	0.161	0.0995	1.07	0.734	0.489	0.244	0.166
NCI-H1915	0.246	0.255	0.258	0.233	0.192	0.255	0.262	0.254	0.258	0.182	0.768	0.662	0.656	0.127	0.0991	0.938	0.877	0.949	0.925	0.597
NCI-H1944	0.459	0.469	0.358	0.21	0.134	0.44	0.409	0.443	0.381	0.193	0.518	0.36	0.0907	0.109	0.086	0.848	0.847	0.804	0.45	0.24
NCI-H1975	0.755	0.78	0.433	0.179	0.139	0.307	0.373	0.387	0.197	0.167	0.699	0.353	0.19	0.247	0.204	0.983	1.1	0.725	0.245	0.179
NCI-H1993	1.01	0.908	0.519	0.412	0.428	0.549	0.524	0.564	0.44	0.356	0.74	0.483	0.398	0.439	0.346	0.77	0.769	0.853	0.546	0.495
NCI-H2085	0.756	0.786	0.699	0.597	0.426	0.583	0.507	0.486	0.425	0.428	0.949	0.847	0.613	0.337	0.271	0.811	0.811	0.668	0.434	0.302
NCI-H2087	0.69	0.413	0.254	0.0942	0.0872	0.283	0.307	0.179	0.086	0.0869	1.1	0.145	0.144	0.111	0.104	0.9	0.814	0.396	0.17	0.161
NCI-H2126	0.888	0.933	0.867	0.562	0.262	0.604	0.546	0.546	0.423	0.299	0.995	1.03	0.891	0.265	0.205	0.704	0.764	0.738	0.615	0.394
NCI-H2170	0.591	0.636	0.258	0.091	0.104	0.457	0.455	0.349	0.201	0.126	0.889	0.771	0.128	0.106	0.108	0.282	0.271	0.244	0.197	0.185
